Assay results: the NIST ThermoML archive (doi:10.1016/j.jct.2017.07.004)

Assay: xn = mol fraction of the nth substance listed
Conditions: 100 kPa, Liquid; for mass density: Vibrating tube method; for viscosity: Concentric cylinders viscometry

CCC=O [propanal] + CCC(C)O
Conditions | mass density, 308.15 K [kg/m3] | mass density, 313.15 K [kg/m3] | mass density, 318.15 K [kg/m3] | mass density, 323.15 K [kg/m3] | viscosity, 313.15 K [mPa·s] | viscosity, 318.15 K [mPa·s] | viscosity, 323.15 K [mPa·s]
x1 = 0.0811 | 796.4 | 791.7 | 786.8 | 781.9 | 1.71 | 1.45 | 1.25
x1 = 0.16 | 798 | 793 | 787.9 | 782.6 | 1.61 | 1.36 | 1.17
x1 = 0.24 | 799.4 | 794 | 788.6 | 783.1 | 1.5 | 1.27 | 1.09
x1 = 0.35 | 800.3 | 794.6 | 789.1 | 783.2 | 1.34 | 1.13 | 0.97
x1 = 0.44 | 800.4 | 794.6 | 788.8 | 782.8 | 1.2 | 1.02 | 0.87
x1 = 0.56 | 799.5 | 793.5 | 787.6 | 781.5 | 1.01 | 0.86 | 0.74
x1 = 0.6499 | 798.1 | 792 | 786.1 | 779.8 | 0.86 | 0.74 | 0.64
x1 = 0.7401 | 795.9 | 789.8 | 783.8 | 777.7 | 0.72 | 0.62 | 0.54
x1 = 0.8501 | 791.8 | 786 | 780 | 774.3 | 0.53 | 0.47 | 0.42
x1 = 0.9401 | 788 | 782.4 | 776.5 | 770.9 | 0.38 | 0.35 | 0.32
x1 = 1 | 784.5 | 779 | 773.5 | 768.2 | 0.28 | 0.27 | 0.25
